This is an account of results in ChEMBL document CHEMBL4507319 (2021).

In test [1] the target is T1, Mitogen-activated protein kinase kinase kinase 7 (Homo sapiens) (UniProt O43318).
T1 sequence (whole entry): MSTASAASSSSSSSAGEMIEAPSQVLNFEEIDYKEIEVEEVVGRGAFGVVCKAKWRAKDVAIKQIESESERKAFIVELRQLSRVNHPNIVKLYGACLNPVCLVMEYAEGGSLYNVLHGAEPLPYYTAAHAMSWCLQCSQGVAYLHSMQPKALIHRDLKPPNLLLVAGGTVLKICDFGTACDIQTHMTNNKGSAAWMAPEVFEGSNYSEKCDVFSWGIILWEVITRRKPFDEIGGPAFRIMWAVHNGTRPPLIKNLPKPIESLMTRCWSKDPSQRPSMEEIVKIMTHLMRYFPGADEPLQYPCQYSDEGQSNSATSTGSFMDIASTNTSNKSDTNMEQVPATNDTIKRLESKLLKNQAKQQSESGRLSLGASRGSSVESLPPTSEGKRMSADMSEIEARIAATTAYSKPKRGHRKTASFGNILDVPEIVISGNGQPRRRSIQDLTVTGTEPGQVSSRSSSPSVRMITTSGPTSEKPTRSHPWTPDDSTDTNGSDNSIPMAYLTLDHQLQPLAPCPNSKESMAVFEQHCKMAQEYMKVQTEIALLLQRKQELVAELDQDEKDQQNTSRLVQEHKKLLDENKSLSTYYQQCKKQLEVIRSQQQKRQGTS
The following applies: Compound concentration 1000.0 nM.

For test [2], the target named is Activated CDC42 kinase 1 (Homo sapiens) (UniProt Q07912). The following applies: Compound concentration 1000.0 nM.
For test [3], the target named is Casein kinase I isoform delta (Homo sapiens) (UniProt P48730). To be noted: Compound concentration 1000.0 nM.
Test [4] deals with Dual specificity tyrosine-phosphorylation-regulated kinase 1A (Homo sapiens) (UniProt Q13627). The following applies: Compound concentration 1000.0 nM.
Test [5] concerns Epidermal growth factor receptor (Homo sapiens), P00533 [L861Q]. The following applies: Compound concentration 1000.0 nM.
Test [6] concerns the target T2, Discoidin domain-containing receptor 2 (Homo sapiens) (UniProt Q16832).
T2 sequence (whole entry): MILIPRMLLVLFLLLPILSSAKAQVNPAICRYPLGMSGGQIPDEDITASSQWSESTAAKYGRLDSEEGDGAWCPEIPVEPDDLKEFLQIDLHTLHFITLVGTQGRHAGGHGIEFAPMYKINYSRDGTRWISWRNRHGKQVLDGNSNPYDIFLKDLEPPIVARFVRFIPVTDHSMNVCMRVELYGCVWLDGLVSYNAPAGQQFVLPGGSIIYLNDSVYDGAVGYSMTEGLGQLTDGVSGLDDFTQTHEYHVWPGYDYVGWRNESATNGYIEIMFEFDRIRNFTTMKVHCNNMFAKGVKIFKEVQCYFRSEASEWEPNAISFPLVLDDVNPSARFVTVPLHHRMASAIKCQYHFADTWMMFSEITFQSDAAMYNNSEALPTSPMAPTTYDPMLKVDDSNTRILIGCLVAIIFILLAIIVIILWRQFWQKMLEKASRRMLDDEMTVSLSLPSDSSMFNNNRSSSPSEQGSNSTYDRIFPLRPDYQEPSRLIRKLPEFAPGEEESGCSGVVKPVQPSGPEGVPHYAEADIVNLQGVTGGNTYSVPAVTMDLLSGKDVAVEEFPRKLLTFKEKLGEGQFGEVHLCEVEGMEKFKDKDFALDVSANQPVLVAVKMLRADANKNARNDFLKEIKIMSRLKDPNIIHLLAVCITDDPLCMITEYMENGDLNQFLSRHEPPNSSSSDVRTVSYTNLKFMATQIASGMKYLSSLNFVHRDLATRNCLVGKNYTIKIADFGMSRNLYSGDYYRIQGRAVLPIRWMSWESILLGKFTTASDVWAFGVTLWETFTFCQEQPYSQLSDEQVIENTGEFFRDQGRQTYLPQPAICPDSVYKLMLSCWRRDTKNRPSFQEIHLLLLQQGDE
To be noted: Compound concentration 1000.0 nM.

In test [7] the target is Serine/threonine-protein kinase LATS2 (Homo sapiens) (UniProt Q9NRM7). To be noted: Compound concentration 1000.0 nM.
Test [8] has as its target T3, NUAK family SNF1-like kinase 1 (Homo sapiens) (UniProt O60285).
T3 sequence (whole entry): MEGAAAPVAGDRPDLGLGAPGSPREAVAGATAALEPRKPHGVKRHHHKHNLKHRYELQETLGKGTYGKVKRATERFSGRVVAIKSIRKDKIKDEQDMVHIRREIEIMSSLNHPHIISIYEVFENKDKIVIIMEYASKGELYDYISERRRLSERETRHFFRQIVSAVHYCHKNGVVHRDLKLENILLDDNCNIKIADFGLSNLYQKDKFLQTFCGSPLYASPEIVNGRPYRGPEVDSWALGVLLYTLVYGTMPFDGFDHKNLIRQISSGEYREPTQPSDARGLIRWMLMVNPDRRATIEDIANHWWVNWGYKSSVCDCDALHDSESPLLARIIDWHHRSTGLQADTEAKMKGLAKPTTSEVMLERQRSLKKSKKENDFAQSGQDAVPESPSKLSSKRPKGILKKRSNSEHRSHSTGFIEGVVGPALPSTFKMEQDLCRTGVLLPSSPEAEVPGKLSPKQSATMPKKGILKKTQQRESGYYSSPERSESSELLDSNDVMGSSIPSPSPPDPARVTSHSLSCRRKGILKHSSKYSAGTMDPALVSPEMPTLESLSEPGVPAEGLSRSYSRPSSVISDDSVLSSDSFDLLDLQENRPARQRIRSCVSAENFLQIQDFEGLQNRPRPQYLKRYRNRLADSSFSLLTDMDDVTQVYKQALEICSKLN
The following applies: Compound concentration 1000.0 nM.

The target of test [9] is 5-hydroxytryptamine receptor 6 (Homo sapiens) (UniProt P50406). The following applies: Compound concentration 10.0 uM.
Test [10] relates to Proto-oncogene tyrosine-protein kinase receptor Ret (Homo sapiens), P07949 [V804M]. To be noted: Compound concentration 1000.0 nM.
Proto-oncogene tyrosine-protein kinase receptor Ret (Homo sapiens), P07949 [V804M], sequence (P07949 whole entry V804M): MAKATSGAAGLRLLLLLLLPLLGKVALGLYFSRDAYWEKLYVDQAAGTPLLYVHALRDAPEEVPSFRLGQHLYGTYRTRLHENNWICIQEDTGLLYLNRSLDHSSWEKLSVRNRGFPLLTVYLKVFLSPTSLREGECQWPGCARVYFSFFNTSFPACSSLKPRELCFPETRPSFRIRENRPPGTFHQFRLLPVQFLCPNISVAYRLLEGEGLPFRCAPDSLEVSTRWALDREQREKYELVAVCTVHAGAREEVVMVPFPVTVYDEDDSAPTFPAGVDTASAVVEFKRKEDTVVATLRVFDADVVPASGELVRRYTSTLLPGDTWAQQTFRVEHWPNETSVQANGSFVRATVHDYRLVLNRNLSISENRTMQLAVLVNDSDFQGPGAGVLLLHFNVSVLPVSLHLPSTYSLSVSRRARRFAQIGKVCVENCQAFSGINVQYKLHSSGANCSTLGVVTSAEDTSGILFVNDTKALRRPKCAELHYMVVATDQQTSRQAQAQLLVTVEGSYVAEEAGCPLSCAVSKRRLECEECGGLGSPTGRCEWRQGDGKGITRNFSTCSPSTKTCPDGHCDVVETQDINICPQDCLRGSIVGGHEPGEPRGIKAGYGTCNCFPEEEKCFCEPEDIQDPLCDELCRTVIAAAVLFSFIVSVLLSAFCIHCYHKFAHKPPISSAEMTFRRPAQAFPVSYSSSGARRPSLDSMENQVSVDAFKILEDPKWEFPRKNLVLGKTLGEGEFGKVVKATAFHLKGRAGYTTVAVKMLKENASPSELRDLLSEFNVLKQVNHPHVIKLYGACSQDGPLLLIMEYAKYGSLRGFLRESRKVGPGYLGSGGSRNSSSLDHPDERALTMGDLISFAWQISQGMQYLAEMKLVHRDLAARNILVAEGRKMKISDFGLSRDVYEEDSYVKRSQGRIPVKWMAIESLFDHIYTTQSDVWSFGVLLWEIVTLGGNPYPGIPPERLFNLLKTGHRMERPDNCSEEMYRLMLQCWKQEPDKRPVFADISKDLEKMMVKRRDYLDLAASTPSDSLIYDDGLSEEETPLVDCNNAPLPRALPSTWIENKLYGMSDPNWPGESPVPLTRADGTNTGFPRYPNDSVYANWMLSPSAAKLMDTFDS

5-hydroxytryptamine receptor 6 (Homo sapiens), sequence (P50406 whole entry): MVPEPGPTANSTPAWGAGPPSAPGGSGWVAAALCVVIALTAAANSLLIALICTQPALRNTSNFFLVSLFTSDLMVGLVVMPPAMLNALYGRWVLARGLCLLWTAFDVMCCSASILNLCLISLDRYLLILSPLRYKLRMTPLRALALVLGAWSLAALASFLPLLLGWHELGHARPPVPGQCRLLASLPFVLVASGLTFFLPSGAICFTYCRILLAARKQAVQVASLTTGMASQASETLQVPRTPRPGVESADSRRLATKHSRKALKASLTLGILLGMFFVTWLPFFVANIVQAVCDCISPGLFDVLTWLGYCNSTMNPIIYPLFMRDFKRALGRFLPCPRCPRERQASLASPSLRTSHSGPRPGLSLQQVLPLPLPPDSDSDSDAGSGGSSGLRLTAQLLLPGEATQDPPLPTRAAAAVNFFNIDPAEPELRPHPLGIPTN
Serine/threonine-protein kinase LATS2 (Homo sapiens), sequence (Q9NRM7 whole entry): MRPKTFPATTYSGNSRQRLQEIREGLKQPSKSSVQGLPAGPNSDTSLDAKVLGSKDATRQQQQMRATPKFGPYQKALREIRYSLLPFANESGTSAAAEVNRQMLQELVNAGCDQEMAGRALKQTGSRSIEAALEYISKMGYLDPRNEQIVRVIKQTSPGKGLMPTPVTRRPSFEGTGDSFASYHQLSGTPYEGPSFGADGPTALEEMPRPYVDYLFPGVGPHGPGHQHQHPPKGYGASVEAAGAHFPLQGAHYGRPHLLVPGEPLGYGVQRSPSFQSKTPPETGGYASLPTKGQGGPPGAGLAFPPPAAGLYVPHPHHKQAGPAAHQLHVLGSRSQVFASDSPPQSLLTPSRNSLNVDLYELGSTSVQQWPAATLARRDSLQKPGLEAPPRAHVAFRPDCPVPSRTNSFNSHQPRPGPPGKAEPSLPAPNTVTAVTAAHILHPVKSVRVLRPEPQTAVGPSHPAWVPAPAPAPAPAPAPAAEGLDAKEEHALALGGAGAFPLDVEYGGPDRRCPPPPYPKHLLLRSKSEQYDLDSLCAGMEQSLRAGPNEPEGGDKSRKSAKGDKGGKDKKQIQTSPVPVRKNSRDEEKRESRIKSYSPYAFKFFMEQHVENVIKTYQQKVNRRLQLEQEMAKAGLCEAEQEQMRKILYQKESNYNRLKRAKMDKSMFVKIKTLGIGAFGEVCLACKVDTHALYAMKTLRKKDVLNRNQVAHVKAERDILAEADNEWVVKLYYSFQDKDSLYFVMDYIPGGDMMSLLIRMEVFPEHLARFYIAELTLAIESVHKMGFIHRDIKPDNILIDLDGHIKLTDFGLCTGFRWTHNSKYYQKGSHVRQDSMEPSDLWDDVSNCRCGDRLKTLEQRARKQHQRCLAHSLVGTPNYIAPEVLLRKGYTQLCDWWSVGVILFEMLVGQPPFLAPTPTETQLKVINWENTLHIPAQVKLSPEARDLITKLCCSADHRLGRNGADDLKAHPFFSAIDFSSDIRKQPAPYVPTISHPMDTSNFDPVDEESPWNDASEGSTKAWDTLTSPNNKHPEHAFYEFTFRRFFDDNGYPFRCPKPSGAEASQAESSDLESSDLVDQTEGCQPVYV
Casein kinase I isoform delta (Homo sapiens), sequence (P48730 whole entry, looked up, canonical isoform): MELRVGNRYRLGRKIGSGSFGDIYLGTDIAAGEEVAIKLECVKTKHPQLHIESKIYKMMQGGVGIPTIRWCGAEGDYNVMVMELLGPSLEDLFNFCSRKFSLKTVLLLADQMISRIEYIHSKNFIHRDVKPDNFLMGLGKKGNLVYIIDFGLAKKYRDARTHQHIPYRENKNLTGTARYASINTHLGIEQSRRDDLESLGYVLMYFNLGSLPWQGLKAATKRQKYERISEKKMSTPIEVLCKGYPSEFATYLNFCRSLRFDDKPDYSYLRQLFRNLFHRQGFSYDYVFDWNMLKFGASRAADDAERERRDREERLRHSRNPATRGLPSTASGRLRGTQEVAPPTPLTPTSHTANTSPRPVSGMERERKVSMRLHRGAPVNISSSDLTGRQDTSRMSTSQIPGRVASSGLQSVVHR
Activated CDC42 kinase 1 (Homo sapiens), sequence (Q07912 whole entry, looked up, canonical isoform): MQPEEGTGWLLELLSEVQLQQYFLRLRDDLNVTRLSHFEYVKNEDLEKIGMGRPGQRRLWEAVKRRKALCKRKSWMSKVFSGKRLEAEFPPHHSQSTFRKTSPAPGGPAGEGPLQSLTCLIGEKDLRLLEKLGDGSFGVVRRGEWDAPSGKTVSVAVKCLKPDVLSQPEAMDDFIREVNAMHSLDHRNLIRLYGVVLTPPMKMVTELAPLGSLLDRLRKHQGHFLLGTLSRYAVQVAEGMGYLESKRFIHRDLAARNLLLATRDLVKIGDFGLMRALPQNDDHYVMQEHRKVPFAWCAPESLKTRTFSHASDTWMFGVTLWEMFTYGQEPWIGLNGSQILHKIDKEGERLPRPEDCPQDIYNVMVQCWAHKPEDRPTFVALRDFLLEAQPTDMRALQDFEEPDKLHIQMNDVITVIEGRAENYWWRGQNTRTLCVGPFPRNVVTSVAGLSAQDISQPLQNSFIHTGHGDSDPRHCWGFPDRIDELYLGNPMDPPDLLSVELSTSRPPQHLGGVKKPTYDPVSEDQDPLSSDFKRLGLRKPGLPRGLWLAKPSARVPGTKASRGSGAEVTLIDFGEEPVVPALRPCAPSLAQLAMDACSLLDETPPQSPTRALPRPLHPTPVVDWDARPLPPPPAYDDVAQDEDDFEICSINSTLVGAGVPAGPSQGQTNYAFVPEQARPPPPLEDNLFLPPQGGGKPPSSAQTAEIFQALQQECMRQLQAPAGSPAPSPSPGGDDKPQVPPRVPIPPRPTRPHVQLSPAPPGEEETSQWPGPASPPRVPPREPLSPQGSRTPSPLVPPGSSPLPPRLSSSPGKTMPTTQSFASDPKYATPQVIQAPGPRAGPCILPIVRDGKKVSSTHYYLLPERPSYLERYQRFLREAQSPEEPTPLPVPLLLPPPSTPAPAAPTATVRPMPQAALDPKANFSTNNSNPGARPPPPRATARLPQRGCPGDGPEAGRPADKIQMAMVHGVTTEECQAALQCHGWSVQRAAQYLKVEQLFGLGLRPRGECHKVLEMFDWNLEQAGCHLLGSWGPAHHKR

As usually defined, the inhibition is the change of the read-out against control, counted positive when it falls. For `CC1=C(C#N)C(c2ccc3c(c2)c(NC(=O)c2ccccc2C)nn3C)C(C#N)=C(C)N1` [BAY-974], the residual activity in test [1] was 74%; in [2], 86%; in [3], 89%; in test [4], 97%; in test [5], 69%; in test [6] it was 86%. The residual activity is 100% in [7], 95% in test [8] and 91% in test [10]. In addition, the inhibition in test [9] is 2.21%.
Turning to `CCc1ccccc1C(=O)Nc1n[nH]c2c(C)c(F)c(C3C(C#N)=C(C)N(C)C(C)=C3C#N)cc12` [BAY-3827], the residual activity was 92% in test [1]; 81% in [2]; 100% in test [3]; 100% in [4]; 43% in test [5]; 100% in test [6]. Moreover, the residual activity is 67% in [7], 33% in test [8] and 11% in test [10]. Further, the inhibition in test [9] is 9.23%.
